The supplement of paper PMC10307832

Assays:
Assay in all cases: relative viability (nuclei count vs DMSO), 5 days (fraction); higher = more cells survive
[1] = compound: CC(C)N(CCCNC(=O)Nc1ccc(C(C)(C)C)cc1)C[C@H]1O[C@@H](n2ccc3c(N)ncnc32)[C@H](O)[C@@H]1O + COc1cccc2cc(-c3nc([C@H]4CC[C@H](C(=O)O)CC4)n4ncnc(N)c34)[nH]c12 [OSI-027] (partner 0.5 µM)
In short: (§1)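 Relative viability is defined as nuclei in treated wells over nuclei in vehicle wells. Duplicate plates were run and medians reported. Lung cancer cell lines in 1536-well plates were dosed by pin tool one day after seeding, with one drug or with a fixed anchor-drug dose plus five library-drug doses (not always all listed) in √10 steps, and nuclei were counted after 5 days.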

[2] = compound: CC(C)=CC[C@@H](O)C1=CC(=O)c2c(O)ccc(O)c2C1=O [Shikonin] + Nc1ncn([C@H]2C[C@H](O)[C@@H](CO)O2)c(=O)n1 [Decitabine] (partner 2 µM)
In short: as §1

[3] = compound: CC(C)=CC[C@@H](O)C1=CC(=O)c2c(O)ccc(O)c2C1=O [Shikonin] + COc1cccc2cc(-c3nc([C@H]4CC[C@H](C(=O)O)CC4)n4ncnc(N)c34)[nH]c12 [OSI-027] (partner 0.5 µM)
In short: as §1

[4] = compound: CC(C)=CC[C@@H](O)C1=CC(=O)c2c(O)ccc(O)c2C1=O [Shikonin] + C[C@@H](Oc1cc(-c2cnn(C3CCNCC3)c2)cnc1N)c1c(Cl)ccc(F)c1Cl [Crizotinib] (partner 1 µM)
In short: as §1

Cell Line	relative viability ([1]; first compound 0.08 µM)	relative viability ([1]; first compound 0.253 µM)	relative viability ([1]; first compound 0.8 µM)	relative viability ([1]; first compound 2.53 µM)	relative viability ([1]; first compound 8 µM)	relative viability ([2]; first compound 0.01 µM)	relative viability ([2]; first compound 0.1 µM)	relative viability ([2]; first compound 0.3162 µM)	relative viability ([2]; first compound 1 µM)	relative viability ([3]; first compound 0.01 µM)	relative viability ([3]; first compound 0.1 µM)	relative viability ([3]; first compound 0.3162 µM)	relative viability ([3]; first compound 1 µM)	relative viability ([4]; first compound 0.01 µM)	relative viability ([4]; first compound 0.1 µM)	relative viability ([4]; first compound 0.3162 µM)	relative viability ([4]; first compound 1 µM)
NCI-H1975	0.729	0.672	0.403	0.577	0.598	0.377	0.392	0.36	0.381	0.728	0.763	0.7	0.68	1.07	1.18	1.09	0.959
CAL-12T	0.603	0.498	0.635	0.579	0.53	–	–	–	–	0.658	0.936	0.546	0.488	0.941	0.659	0.627	0.589
NCI-H1623	0.446	0.469	0.529	0.422	0.437	–	–	–	–	0.397	0.428	0.414	0.393	–	–	–	–
HCC-44	0.507	0.509	0.432	0.572	0.552	0.953	0.928	1.1	0.979	0.512	0.513	0.466	0.747	0.933	0.86	0.891	0.825
EKVX	0.718	0.713	0.71	0.704	0.668	0.295	0.367	0.312	0.584	0.617	0.668	0.917	0.734	1.05	1.2	0.996	1.07
NCI-H1651	0.671	0.556	0.653	0.811	0.77	0.621	0.656	0.66	0.641	0.744	0.469	0.708	0.686	0.857	0.831	0.883	0.876
NCI-H1944	0.413	0.41	0.401	0.452	0.405	0.464	0.446	0.443	0.435	0.397	0.462	0.423	0.459	1.12	1.18	1.24	1.22
NCI-H1703	–	–	–	–	–	–	–	–	–	–	–	–	–	0.873	0.671	0.633	0.512
Calu-6	–	–	–	–	–	–	–	–	–	–	–	–	–	1.02	0.854	0.912	0.75
EBC-1	–	–	–	–	–	–	–	–	–	–	–	–	–	0.165	0.224	0.216	0.201
NCI-H1993	0.521	–	–	0.578	0.56	0.668	0.592	0.632	0.555	0.558	0.522	0.561	0.582	–	0.922	0.866	0.93
A-427	0.439	0.492	0.535	0.502	0.478	0.575	0.578	0.579	0.61	0.503	0.594	0.514	0.509	0.978	1.12	1.03	0.847
NCI-H2405	0.626	0.678	0.684	0.668	0.592	0.827	0.889	0.762	0.702	0.644	0.661	0.67	0.658	0.854	0.819	0.935	0.852
NCI-H1355	0.375	0.473	0.374	0.472	0.428	0.339	0.4	0.38	0.337	0.457	0.405	0.37	0.483	1.16	1.31	1.19	1.12
NCI-H358	0.75	0.61	0.724	0.752	0.714	0.178	0.23	0.218	0.19	0.681	0.699	0.712	0.662	0.699	0.484	0.619	0.63
SK-LU-1	0.372	0.424	0.352	0.405	0.338	0.631	0.688	0.59	0.635	0.341	0.371	0.343	0.352	1.11	0.937	0.928	0.877
NCI-H23	0.594	0.596	0.574	0.681	0.645	0.335	0.306	0.333	0.277	0.623	0.661	0.62	0.521	0.576	0.489	0.515	0.502
HOP-62	0.864	0.89	0.767	0.751	0.681	0.24	0.222	0.205	0.212	0.967	1.06	1.03	0.826	0.61	0.95	0.32	1.02
HARA	0.454	0.536	0.621	0.568	0.375	0.516	0.674	0.691	0.591	0.431	0.667	0.521	0.521	1.18	1.19	1.11	1.21
PC-3 [JPC-3]	0.801	0.867	0.718	0.779	0.721	0.765	0.896	0.843	0.82	0.851	0.746	0.759	0.751	1.03	1.14	1.03	0.986
NCI-H1755	0.801	0.753	0.672	0.717	0.667	0.735	0.768	0.761	0.712	0.765	0.736	0.827	0.687	0.972	1.09	0.88	0.887
